Measurements as given in patent publication US20260217692A1 (Ascentage Pharma (Suzhou) Co., Ltd., priority 2023, published 2026).
Several values for one entry are separate records, joined by “and”; a condition that tells them apart may be missing. Equal values may be shown once. Where a name gives a salt, the structure may show the parent alone.

What was measured:
[1] = Dynamic vapor sorption (DVS) hygroscopicity test; type: physicochemical; details: for hygroscopic weight gain (DVS curve): 25° C. and 80% RH
Text: In the present disclosure, the DVS test parameters are set as follows: [table]

[2] = Stability of crystal forms under stability test conditions (appearance, XRPD, HPLC); type: physicochemical; details: for Total impurities: HPLC
Protocol: The samples were placed under the stability conditions shown in the following table, sampling was performed at the corresponding time points, and the samples were subjected to appearance and XRPD tests. […] The stability results obtained are recorded in the following table. […] The samples were placed under the stability test conditions shown in the following table, sampling was performed at different time points, and the samples were subjected to the XRPD test. […] The samples were placed in an open state under the stability test conditions of 40° C./75% RH and 90% RH; and the samples were placed in a closed state at 60° C. in a light box (the test samples in the dark were placed in the same manner as the illumination test samples, and the treatment was performed in the dark). Sampling was performed at different time points, and the samples were subjected to the XRPD test. […] The samples were placed under the stability conditions shown in the following table, sampling was performed at the corresponding time points, and the samples were subjected to appearance and XRPD tests. […] The stability results obtained are recorded in the following table.

[3] = Polymorph screening test, suspension method (crystal form by XRPD after stirring in solvent); type: physicochemical
Protocol: (or 50° C.) for 3 days in the dark and centrifuged to remove the supernatant; the resulting precipitate was dried under vacuum (25° C., −0.1 MPa); and the resulting solid was collected and subjected to the XRPD test. The results are as follows:
(or 50° C./80° C.) for 3 days in the dark and centrifuged to remove the supernatant; and the resulting precipitate was dried under vacuum (25° C., −0.1 MPa).
(or 50° C.) for 3 days in the dark and centrifuged to remove the supernatant; and the resulting precipitate was dried under vacuum (25° C., −0.1 MPa).

[4] = XRPD of residual solids in solubility test in biological media; type: physicochemical; details: Water; 37° C.
[5] = Solubility in biological media at 37° C. (HPLC, pH)
preclinical tumor model = preclinical tumor model studies; cited from earlier work
[6] = test system: multiple xenograft tumor models; details: cited from earlier work
[7] = test system: EGFRT790M-mutant NSCLC xenograft tumor models; details: cited from earlier work
[8] = in vivo; cited from earlier work
[9] = Illumination (1 ICH), 5 d and 10 d
[10] = 0 d, listed as Crystal form D of the compound represented by formula I

## Cc1cc(Nc2ncc(Cl)c(Nc3ccccc3S(=O)(=O)C(C)C)n2)c(OC(C)C)cc1C1=CCN(C2CCOCC2)CC1 [one equivalent of maleate crystal form A]
[1]
  hygroscopic weight gain (DVS curve): 0.11±0.005% and 0.11%
[1]; 80% RH
  hygroscopicity (DVS result in words): no hygroscopicity
[1]; DVS
  crystal form before and after the hygroscopic test: did not change
[2]; 0 d
  Appearance: Pale yellow powder
  Crystal form (XRPD): Maleate crystal form A
  Total impurities: 0.12%
[2]; 40° C./75% RH, 5 d, 10 d and 30 d
  Crystal form (XRPD): Maleate crystal form A
[2]; 40° C./75% RH, 5 d
  Total impurities: 0.16%
[2]; 40° C./75% RH, 10 d
  Total impurities: 0.14%
[2]; 40° C./75% RH, 30 d
  Total impurities: 0.29%
[2]; 60° C., 5 d, 10 d and 30 d
  Crystal form (XRPD): Maleate crystal form A
[2]; 60° C., 5 d
  Total impurities: 0.16%
[2]; 60° C., 10 d
  Total impurities: 0.21%
[2]; 60° C., 30 d
  Total impurities: 0.16%
[2]; 90% RH, 5 d, 10 d and 30 d
  Crystal form (XRPD): Maleate crystal form A
[2]; 90% RH, 5 d
  Total impurities: 0.14%
[2]; 90% RH, 10 d
  Total impurities: 0.25%
[2]; 90% RH, 30 d
  Total impurities: 0.26%
[2]; Illumination (1 ICH), 5 d
  Total impurities: 0.26%
[2]; [9]
  Appearance: Color deepening
  Crystal form (XRPD): Maleate crystal form A
[2]; Illumination (1 ICH), 10 d
  Total impurities: 0.65%
[2]; In the dark, 5 d
  Total impurities: 0.12%
[2]; In the dark, 5 d and 10 d
  Crystal form (XRPD): Maleate crystal form A
[2]; In the dark, 10 d
  Total impurities: 0.18%
[3]; ethanol, isopropanol, acetone, ethyl acetate, isopropyl acetate, methyl tert-butyl ether, dichloromethane, tetrahydrofuran, toluene, n-heptane, dioxane, methyl acetate, 2-methyltetrahydrofuran, cyclohexane, n-hexane, methyl ethyl ketone, or methyl isobutyl ketone
  stability of crystal form in solvent, suspension method: relatively good stability
[3]; same solvents as in b585 at 25-50° C.
  crystal form when stirred in solvent: remained stable

## Cc1cc(Nc2ncc(Cl)c(Nc3ccccc3S(=O)(=O)C(C)C)n2)c(OC(C)C)cc1C1=CCN(C2CCOCC2)CC1 [one equivalent of succinate crystal form D]
[1]
  hygroscopic weight gain (DVS curve): 0.19±0.005% and 0.19%
[2]; 0 d
  Total impurities: 0.73%
[2]; 40° C./75% RH, 1 M
  Total impurities: 0.74%
[2]; 40° C./75% RH, 10 d
  Total impurities: 0.74%
[2]; 60° C., 1 M
  Total impurities: 0.71%
[2]; 60° C., 10 d
  Total impurities: 0.69%
[2]; 90% RH, 1 M
  Total impurities: 0.96%
[2]; 90% RH, 10 d
  Total impurities: 0.73%
[2]; Illumination, 5 d
  Total impurities: 0.86%
[2]; Illumination, 5 d and 10 d
  Appearance: Color deepening
[2]; Illumination, 10 d
  Total impurities: 0.98%
[3]; in solvents
  stability of crystal form in solvents, succinate polymorph screening test: relatively good stability
[3]; methanol, ethanol, acetonitrile, acetone, ethyl acetate, dichloromethane, water, n-heptane, dioxane, or mixed solvent of methanol, acetonitrile, or acetone with water, 40° C.
  crystal form when stirred in solvent: remained stable

## Maleate
[4]
  XRPD results of residual solids: Crystal form A
[5]; FaSSIF-V2, 2 h
  Solubility: 20 µg/mL
[5]; FaSSIF-V2, 24 h
  Solubility: <LOQ
[5]; FeSSIF-V2, 2 h
  Solubility: 220 µg/mL
[5]; FeSSIF-V2, 24 h
  Solubility: 220 µg/mL
[5]; SGF, 2 h
  Solubility: 1390 µg/mL
[5]; SGF, 24 h
  Solubility: 1920 µg/mL
[5]; Water, 2 h
  Solubility: 20 µg/mL
[5]; Water, 24 h
  Solubility: 20 µg/mL

## Cc1cc(Nc2ncc(Cl)c(Nc3ccccc3S(=O)(=O)C(C)C)n2)c(OC(C)C)cc1C1=CCN(C2CCOCC2)CC1 [crystal form D]
[1]
  hygroscopic weight gain (DVS curve): 0.14±0.005% and 0.14%
[2]; 0 d
  XRPD: No significant change
[2]; [10]
  Total impurities: 0.14%
  Appearance: No significant change
[2]; 25° C./60% RH, 1 M
  Total impurities: 0.17%
[2]; 25° C./60% RH, 10 d
  Total impurities: 0.14%
[2]; 25° C./60% RH, 10 d and 1 M
  Appearance: No significant change
  XRPD: No significant change
[2]; 40° C./75% RH, 1 M, listed as Crystal form D of the compound represented by formula I
  Total impurities: 0.17%
[2]; 40° C./75% RH, 10 d, listed as Crystal form D of the compound represented by formula I
  Total impurities: 0.17%
[2]; 40° C./75% RH, 10 d and 1 M
  XRPD: No significant change
[2]; 40° C./75% RH, 10 d and 1 M, listed as Crystal form D of the compound represented by formula I
  Appearance: No significant change
[2]; 60° C., 1 M, listed as Crystal form D of the compound represented by formula I
  Total impurities: 0.20%
[2]; 60° C., 10 d, listed as Crystal form D of the compound represented by formula I
  Total impurities: 0.17%
[2]; 60° C., 10 d and 1 M
  XRPD: No significant change
[2]; 60° C., 10 d and 1 M, listed as Crystal form D of the compound represented by formula I
  Appearance: No significant change
[2]; 90% RH, 1 M, listed as Crystal form D of the compound represented by formula I
  Total impurities: 0.17%
[2]; 90% RH, 10 d, listed as Crystal form D of the compound represented by formula I
  Total impurities: 0.17%
[2]; 90% RH, 10 d and 1 M
  XRPD: No significant change
[2]; 90% RH, 10 d and 1 M, listed as Crystal form D of the compound represented by formula I
  Appearance: No significant change
[2]; Illumination, 5 d, listed as Crystal form D of the compound represented by formula I
  Total impurities: 0.17%
[2]; Illumination, 5 d and 10 d
  Appearance: Color deepening
  XRPD: No significant change
[2]; Illumination, 10 d, listed as Crystal form D of the compound represented by formula I
  Total impurities: 2.43%
[2]; In the dark, 5 d, listed as Crystal form D of the compound represented by formula I
  Total impurities: 0.17%
[2]; In the dark, 5 d and 10 d
  XRPD: No significant change
[2]; In the dark, 5 d and 10 d, listed as Crystal form D of the compound represented by formula I
  Appearance: No significant change
[2]; In the dark, 10 d, listed as Crystal form D of the compound represented by formula I
  Total impurities: 0.14%

## Cc1cc(Nc2ncc(Cl)c(Nc3ccccc3S(=O)(=O)C(C)C)n2)c(OC(C)C)cc1C1=CCN(C2CCOCC2)CC1.Cl
[1]
  hygroscopic weight gain (DVS curve): 0.15%
[2]; 0 d
  Appearance: Pale yellow powder
  Total impurities: 0.10%
[2]; 40° C./75% RH, 5 d
  Total impurities: 0.18%
[2]; 40° C./75% RH, 10 d
  Total impurities: 0.53%
[2]; 40° C./75% RH, 30 d
  Appearance: Color deepening
  Total impurities: 1.09%
[2]; 60° C., 5 d
  Total impurities: 0.15%
[2]; 60° C., 10 d
  Total impurities: 0.23%
[2]; 60° C., 30 d
  Total impurities: 0.21%
[2]; 90% RH, 5 d
  Total impurities: 0.17%
[2]; 90% RH, 10 d
  Total impurities: 0.28%
[2]; 90% RH, 30 d
  Appearance: Color deepening
  Total impurities: 0.41%
[2]; Illumination (1 ICH), 5 d
  Total impurities: 0.39%
[2]; [9]
  Appearance: Color deepening
[2]; Illumination (1 ICH), 10 d
  Total impurities: 0.51%
[2]; In the dark, 5 d
  Total impurities: 0.07%
[2]; In the dark, 10 d
  Total impurities: 0.16%

## Cc1cc(Nc2ncc(Cl)c(Nc3ccccc3S(=O)(=O)C(C)C)n2)c(OC(C)C)cc1C1=CCN(C2CCOCC2)CC1 [APG-2449]
Preclinical tumor model
  resistance developed by the first-generation ALK inhibitor: can overcome resistance
[6]
  anti-tumor activity: exhibits anti-tumor activity
[7]
  effect in combination with EGFR inhibitors (particularly AZD9291/osimertinib): synergistic effect
[8]
  oral bioavailability: high oral bioavailability
